# Data: ChEMBL document CHEMBL1149034, “8-Hydroxymanzamine A, a beta-carboline alkaloid from a sponge, Pachypellina sp” (J Nat Prod, 1994)
# The source made the active and inactive calls. The calls are words filed in the database; no cut-off is given here.
# Experiments:
# [1] = test system: Human alphaherpesvirus 2; test: Antiviral activity against HSV2; type: functional
# [2] = test system: P388; test: Cytotoxicity against mouse P388 cells; type: functional, cell-based
# [3] = test system: KB; test: Cytotoxicity against human KB cells; type: functional, cell-based
# [4] = test system: LoVo; test: Cytotoxicity against human LoVo cells; type: functional, cell-based
Structure (SMILES),MIC [1],Activity [2],IC50 [3],IC50 [4],IC50 [2]
Oc1cccc2c1[nH]c1c(C3=C[C@@]4(O)CC/C=C\CCCCN5CC[C@@H]3[C@]3(CC6/C=C\CCCCN6[C@H]34)C5)nccc12 (stereo partly specified),0.1 µg/mL,inactive,0.3 µg/mL,0.26 µg/mL,
COc1cccc2c1[nH]c1c(C3=C[C@@]4(O)CC/C=C\CCCCN5CC[C@@H]3[C@]3(C[C@@H]6/C=C\CCCCN6[C@H]34)C5)nccc12 [8-METHOXYMANZAMINE A],0.1 µg/mL,,0.33 µg/mL,0.1 µg/mL,
O[C@]12C=C(c3nccc4c3[nH]c3ccccc34)[C@@H]3CCN(CCCC/C=C\CC1)C[C@@]31C[C@@H]3/C=C\CCCCN3[C@H]12 [MANZAMINE A],0.05 µg/mL,,0.05 µg/mL,0.15 µg/mL,0.07 µg/mL
